Experimental data taken from patent US20140329863A1 (priority 2011, published 2014).
Values after ≈ are worked out from the molar mass of the structure shown.

Key:
[1] = Hepatic microsomal stability, rat
[2] = Hepatic microsomal stability, mouse; conditions: for half-life at 1 μM: CD-1, mouse, pH 7.4
[3] = Hepatic microsomal stability, human; conditions: for half-life at 1 μM: human, pH 7.4
Media solubility = format: physicochemical; conditions: cell media
Method: To evaluate media solubility, two protocols were followed. In the first, solutions were prepared as described above. After overnight equilibration, samples were centrifuged for 30 min, without filtration, and supernatant analyzed by HPLC/UV/VIS with reference to three standards (5, 100, 250 μM). In the second protocol, turbidimetric analysis, dilutions of the compound of interest were prepared in media with target concentrations of 5, 10, 20, 50, 100, 200 and 300 μM. Media without solute was included for background. These solutions were evaluated using a light scattering technique and a Nepheloskan instrument.

PrP^C in T98G cells = format: cell-based, human
PrP^C in IMR32 cells = format: cell-based, human
[4] = tested on: PrP^Sc in dividing ScN2a-c13 cells
[5] = tested on: PrP^Sc in nondividing ScN2a-c13 cells; format: cell-based, mouse
prion-infected mice = conditions: literature reports; cited from earlier work
[6] = tested on: PrP^Sc in nondividing ScN2a-cl3 cells; conditions: previously demonstrated; cited from earlier work
[7] = tested on: PrP^Sc in dividing ScN2a-cl3 cells; conditions: previously demonstrated; cited from earlier work

SMILES: COc1ccc(Nc2nc(-c3ccc(OC)c(OC)c3)cs2)nc1 [IND44, [4-(3,4-Dimethoxy-phenyl)-thiazol-2-yl]-(5-methoxy-pyridin-2-yl)-amine]
- t1/2 in min, Rat ([1]; […]): 45 min
- % remaining after a 60-min incubation, Rat ([1]; […], 60-min incubation): 39%
- t1/2 Rat ([1]; rat microsomes): 45 min
- solubility in FaSSIF (in words) (fasted-state simulated intestinal fluid): lower solubility
- solubility at pH 2.0 (in words) (pH 2 (HCl) buffer): lower solubility
- solubility at pH 7.4 (in words) (pH 7.4 phosphate buffer): lower solubility
- solubility (physchem; FaSSIF): < 1 µM
- solubility (physchem; cell culture media, plasma or biological fluid): 3 µM (≈ 1.03 µg/mL)
- solubility (physchem; pH 2 (HCl) buffer, pH 2, simulated gastric fluid): 1 µM (≈ 0.343 µg/mL)
- solubility (physchem; pH 7.4 (phosphate) buffer, pH 7.4, aqueous buffer): < 1 µM
- half-life at 1 μM ([2]; liver microsomes): 29 min
- half-life at 1 μM ([2]; mouse liver microsomes): 29 min
- % remaining after a 60-min incubation, Mouse ([2]; mouse liver microsomes, 60-min incubation): 24%
- % remaining after a 60-min incubation, Human ([3]; human liver microsomes, 60-min incubation): 48%
- half-life at 1 μM ([3]; human liver microsomes): 58 min
- half-life at 1 μM ([3]; liver microsomes): 58 min
- solubility in media (in words) (Media solubility): lower solubility

SMILES: O=C(O)c1cccc2c1NC(C(=O)O)C1CC=CC21 (centres unmarked) [IND-0001270, 3a, 4,5,9b-tetrahydro-3H cyclopenta[c]quinoline-4,6-dicarboxylic acid]
- activity on PrP^C (in words) (PrP^C in T98G cells): active
- activity on PrP^C (in words) (PrP^C in IMR32 cells; IMR32 cells): active
- antiprion activity (in words) ([4]; dividing ScN2a-c13 cells): active
- activity on PrP^Sc in nondividing cells (in words) [5]: active

SMILES: CCN(CC)CCCC(C)Nc1c2ccc(Cl)cc2nc2ccc(OC)cc12 (centres unmarked) [quinacrine]
- effect in prion-infected mice (prion-infected mice): ineffective
- Clearance of PrP^Sc in nondividing prion-infected cells [6]: relatively ineffective
- PrP^C levels, HTS of FDA-approved drugs (PrP^C in IMR32 cells): lowered
- Clearance of PrP^Sc in dividing cells [7]: rapidly clears dividing cells of PrP^Sc
- PrP^Sc levels, HTS of FDA-approved drugs ([4]; HTS of 1,700 FDA-approved drugs): lowered
